Assay results published in patent US9999619B2, “Piperidin-4-yl azetidine derivatives as JAK1 inhibitors” (Incyte Corporation, priority 2010, dated 2018).
pIC50: −log10 of the molar value. Structures can show the parent of a compound that is named as a salt.

How the values were obtained:
Format in all cases: biochemical
Jak2 (a.a. 828-1132) = Jak2 (a.a. 828-1132) (Homo sapiens (Human), UniProt O60674); test: In vitro JAK kinase assay (HTRF, phosphorylation of a biotinylated peptide), JAK2; conditions: measured at 1 mM ATP
Sequence of Jak2 (a.a. 828-1132) (O60674 828-1132): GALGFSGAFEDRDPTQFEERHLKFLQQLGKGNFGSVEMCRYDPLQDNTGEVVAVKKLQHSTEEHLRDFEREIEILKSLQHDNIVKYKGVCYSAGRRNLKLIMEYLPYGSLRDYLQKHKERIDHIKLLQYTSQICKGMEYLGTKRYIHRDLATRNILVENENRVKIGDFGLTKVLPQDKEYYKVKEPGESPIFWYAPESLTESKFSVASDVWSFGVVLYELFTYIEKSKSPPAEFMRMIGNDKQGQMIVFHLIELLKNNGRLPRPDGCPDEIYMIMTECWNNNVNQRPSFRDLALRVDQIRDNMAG
Outline: (§1)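 N-terminal His-tagged catalytic domains, baculovirus-expressed in insect cells, phosphorylated a biotinylated peptide for 1 hr at room temperature. EDTA stop was followed by SA-APC and Eu-Py20 antibody for 40 minutes, with phosphopeptide read by HTRF.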

[1] = molecular target: human JAK1 (a.a. 837-1142); test: In vitro JAK kinase assay (HTRF, phosphorylation of a biotinylated peptide), JAK1; conditions: ratio of JAK2 IC50 to JAK1 IC50, measured at 1 mM ATP
Outline: as §1

[2] = molecular target: human JAK1 (a.a. 837-1142) (Homo sapiens, UniProt P23458); test: as above; conditions: measured at 1 mM ATP
Outline: as §1

Structure (SMILES)	pIC50 (Jak2 (a.a. 828-1132))	IC50 Ratio JAK2/JAK1 [1]	pIC50 [2]
N#CCC1(n2cc(-c3c(F)cnc4[nH]ccc34)cn2)CN(C2CCN(C(=O)Nc3ncccc3C(F)(F)F)CC2)C1 [Example 329, 4-{3-(cyanomethyl)-3-[4-(5-fluoro-1H-pyrrolo[2,3-b]pyridin-4-yl)-1H-pyrazol-1-yl]azetidin-1-yl}-N-[3-(trifluoromethyl)pyridin-2-yl]piperidine-1-carboxamide]	7.00 to 7.30	4.5	7.70 to 8.30
N#CCC1(n2cc(-c3c(C#N)cnc4[nH]ccc34)cn2)CN(C2CCN(C(=O)c3cc(C(F)(F)F)ncc3F)CC2)C1 [Example 356, 4-[1-(3-(Cyanomethyl)-1-{1-[5-fluoro-2-(trifluoromethyl)isonicotinoyl]piperidin-4-yl}azetidin-3-yl)-1H-pyrazol-4-yl]-1H-pyrrolo[2,3-b]pyridine-5-carbonitrile]	7.00 to 7.30	5.8	7.70 to 8.30
N#CCC1(n2ccc(-c3ncnc4[nH]ccc34)c2)CN(C2CCN(C(=O)c3ccc(C(F)(F)F)cc3F)CC2)C1 [Example 272, {1-{1-[2-fluoro-4-(trifluoromethyl)benzoyl]piperidin-4-yl}-3-[3-(7H-pyrrolo[2,3-d]pyrimidin-4-yl)-1H-pyrrol-1-yl]azetidin-3-yl}acetonitrile]	7.30 to 8.00	6.5	7.70 to 8.30
N#CCC1(n2cc(-c3ncnc4[nH]ccc34)cn2)CN(C2CCN(C(=O)c3cc(Cl)cc(Cl)c3)CC2)C1 [Example 24, {1-[1-(3,5-dichlorobenzoyl)piperidin-4-yl]-3-[4-(7H-pyrrolo[2,3-d]pyrimidin-4-yl)-1H-pyrazol-1-yl]azetidin-3-yl}acetonitrile]	≥ 8.00	6.6	≥ 8.30
Cn1nccc1S(=O)(=O)N1CCC(N2CC(CC#N)(n3cc(-c4ncnc5[nH]ccc45)cn3)C2)CC1 [Example 246, {1-{1-[(1-Methyl-1H-pyrazol-5-yl)sulfonyl]piperidin-4-yl}-3-[4-(7H-pyrrolo[2,3-d]pyrimidin-4-yl)-1H-pyrazol-1-yl]azetidin-3-yl}acetonitrile]	7.30 to 8.00	7.5	≥ 8.30
CCN(C)Cc1cc(C(=O)N2CCC(N3CC(CC#N)(n4cc(-c5ncnc6[nH]ccc56)cn4)C3)CC2)nc(C(F)(F)F)n1 [Example 374, {1-(1-{[6-{[ethyl(methyl)amino]methyl}-2-(trifluoromethyl)pyrimidin-4-yl]carbonyl}piperidin-4-yl)-3-[4-(7H-pyrrolo[2,3-d]pyrimidin-4-yl)-1H-pyrazol-1-yl]azetidin-3-yl}acetonitrile]	7.30 to 8.00	50	≥ 8.30
CN(C)c1ccc(C(=O)N2CCC(N3CC(CC#N)(n4cc(-c5ncnc6[nH]ccc56)cn4)C3)CC2)c(F)c1C#N [Example 51, 3-[(4-{3-(cyanomethyl)-3-[4-(7H-pyrrolo[2,3-d]pyrimidin-4-yl)-1H-pyrazol-1-yl]azetidin-1-yl}piperidin-1yl)carbonyl]-6-(dimethylamino)-2-fluorobenzonitrile]	≥ 8.00	6.3	≥ 8.30
N#CCC1(n2cc(-c3ncnc4[nH]ccc34)cn2)CN(C2CCN(C(=O)C3CCC(F)(F)CC3)CC2)C1 [Example 100, {1-{1-[(4,4-difluorocyclohexyl)carbonyl]piperidin-4-yl}-3-[4-(7H-pyrrolo[2,3-d]pyrimidin-4-yl)-1H-pyrazol-1-yl]azetidin-3-yl}acetonitrile]	7.00 to 7.30	6.6	7.70 to 8.30
N#CCC1(n2cc(-c3ncnc4[nH]ccc34)cn2)CN(C2CCN(C(=O)Nc3ccc(OC(F)(F)F)cc3)CC2)C1 [Example 182, 4-{3-(cyanomethyl)-3-[4-(7H-pyrrolo[2,3-d]pyrimidin-4-yl)-1H-pyrazol-1-yl]azetidin-1-yl}-N-[4-(trifluoromethoxy)phenyl]piperidine-1-carboxamide]	7.30 to 8.00	3.7	7.70 to 8.30
N#CCC1(n2cc(-c3ncnc4[nH]ccc34)cn2)CN(C2CCN(C(=O)c3cc(Cl)sc3Cl)CC2)C1 [Example 30, {1-{1-[(2,5-dichloro-3-thienyl)carbonyl]piperidin-4-yl}-3-[4-(7H-pyrrolo[2,3-d]pyrimidin-4-yl)-1H-pyrazol-1-yl]azetidin-3-yl}acetonitrile]	≥ 8.00	2.8	≥ 8.30
CS(=O)(=O)N1CCC(N2CC(CC#N)(n3cc(-c4c(C#N)cnc5[nH]ccc45)cn3)C2)CC1 [Example 357, 4-(1-{3-(Cyanomethyl)-1-[1-(methylsulfonyl)piperidin-4-yl]azetidin-3-yl}-1H-pyrazol-4-yl)-1H-pyrrolo[2,3-b]pyridine-5-carbonitrile]	7.30 to 8.00	3.8	≥ 8.30
N#CCC1(n2cc(-c3ncnc4[nH]ccc34)cn2)CN(C2CCN(C(=O)c3cc(CN4CC[C@H](F)C4)nc(C(F)(F)F)n3)CC2)C1 [Example 377, {1-(1-{[6-{[(3S)-3-fluoropyrrolidin-1-yl]methyl}-2-(trifluoromethyl)pyrimidin-4-yl]carbonyl}piperidin-4-yl)-3-[4-(7H-pyrrolo[2,3-d]pyrimidin-4-yl)-1H-pyrazol-1-yl]azetidin-3-yl}acetonitrile (trifluoroacetate salt: 4 TFA)]	7.30 to 8.00	35.7	≥ 8.30
N#CCC1(n2cc(-c3ncnc4[nH]ccc34)cn2)CN(C2CCN(C(=O)c3cccc(Cl)n3)CC2)C1 [Example 13, {1-{1-[(6-chloropyridin-2-yl)carbonyl]piperidin-4-yl}-3-[4-(7H-pyrrolo[2,3-d]pyrimidin-4-yl)-1H-pyrazol-1-yl]azetidin-3-yl}acetonitrile]	7.30 to 8.00	5.3	≥ 8.30
N#CCC1(n2cc(-c3ncnc4[nH]ccc34)cn2)CN(C2CCN(C(=O)Nc3ccccc3Cl)CC2)C1 [Example 163, N-(2-chlorophenyl)-4-{3-(cyanomethyl)-3-[4-(7H-pyrrolo[2,3-d]pyrimidin-4-yl)-1H-pyrazol-1-yl]azetidin-1-yl}piperidine-1-carboxamide]	7.30 to 8.00	12.0	≥ 8.30
N#CCC1(n2cc(-c3c(F)cnc4[nH]ccc34)cn2)CN(C2CCN(C(=O)Nc3ccc(F)cc3C(F)(F)F)CC2)C1 [Example 328, 4-{3-(Cyanomethyl)-3-[4-(5-fluoro-1H-pyrrolo[2,3-b]pyridin-4-yl)-1H-pyrazol-1-yl]azetidin-1-yl}-N-[4-fluoro-2-(trifluoromethyl)phenyl]piperidine-1-carboxamide]	7.30 to 8.00	12.9	≥ 8.30
N#CCC1(n2cc(-c3c(F)cnc4[nH]ccc34)cn2)CN(C2CCN(C(=O)Nc3ccncc3C(F)(F)F)CC2)C1 [Example 331, 4-{3-(cyanomethyl)-3-[4-(5-fluoro-1H-pyrrolo[2,3-b]pyridin-4-yl)-1H-pyrazol-1-yl]azetidin-1-yl}-N-[3-(trifluoromethyl)pyridin-4-yl]piperidine-1-carboxamide]	7.30 to 8.00	10.8	≥ 8.30
N#CCC1(n2cc(-c3ccnc4[nH]ccc34)cn2)CN(C2CCN(C(=O)c3ccnc(C(F)(F)F)n3)CC2)C1 [Example 299, [3-[4-(1H-pyrrolo[2,3-b]pyridin-4-yl)-1H-pyrazol-1-yl]-1-(1-{[2-(trifluoromethyl)pyrimidin-4-yl]carbonyl}piperidin-4-yl)azetidin-3-yl]acetonitrile]	< 7.00	6.6	7.52 to 7.70
N#CCC1(n2cc(-c3ncnc4[nH]ccc34)cn2)CN(C2CCN(S(=O)(=O)c3cccc(C#N)c3)CC2)C1 [Example 248, 3-[(4-{3-(cyanomethyl)-3-[4-(7H-pyrrolo[2,3-d]pyrimidin-4-yl)-1H-pyrazol-1-yl]azetidin-1-yl}piperidin-1-yl)sulfonyl]benzonitrile]	< 7.00	5.2	7.52 to 7.70
N#CCC1(n2cc(-c3ncnc4[nH]ccc34)cn2)CN(C2CCN(C(=O)C3CCC(C(F)(F)F)CC3)CC2)C1 (stereo not drawn) [Example 98, {3-[4-(7H-pyrrolo[2,3-d]pyrimidin-4-yl)-1H-pyrazol-1-yl]-1-(1-{[4-(trifluoromethyl)cyclohexyl]carbonyl}piperidin-4-yl)azetidin-3-yl]acetonitrile]	7.00 to 7.30	3.7	7.70 to 8.30
N#CCC1(n2cc(-c3ncnc4[nH]ccc34)cn2)CN(C2CCN(C(=O)c3ccc(C(F)(F)F)c(F)c3)CC2)C1 [Example 52, {1-{1-[3-fluoro-4-(trifluoromethyl)benzoyl]piperidin-4-yl}-3-[4-(7H-pyrrolo[2,3-d]pyrimidin-4-yl)-1H-pyrazol-1-yl]azetidin-3-yl}acetonitrile]	7.00 to 7.30	4.4	7.70 to 8.30
N#CCC1(n2cc(-c3ncnc4[nH]ccc34)cn2)CN(C2CCN(Cc3c(C(F)(F)F)ccc(Cl)c3F)CC2)C1 [Example 236, {1-{1-[3-chloro-2-fluoro-6-(trifluoromethyl)benzyl]piperidin-4-yl}-3-[4-(7H-pyrrolo[2,3-d]pyrimidin-4-yl)-1H-pyrazol-1-yl]azetidin-3-yl}acetonitrile]	≥ 8.00	5.5	≥ 8.30
N#CCC1(n2ccc(-c3ncnc4[nH]ccc34)c2)CN(C2CCN(C(=O)Nc3ccc(F)cc3F)CC2)C1 [Example 286, 4-{3-(cyanomethyl)-3-[3-(7H-pyrrolo[2,3-d]pyrimidin-4-yl)-1H-pyrrol-1-yl]azetidin-1-yl}-N-(2,4-difluorophenyl)piperidine-1-carboxamide]	7.30 to 8.00	13.1	≥ 8.30
